Test results taken from article PMC9204756 (2022).
Each block holds one compound with its values, some of them ahead of it.

Key:
[1] = tested on: FMN riboswitch aptamer (FMN RNA) (RNA, riboswitch) GGGUGUAUCCUUCGGGGCAGGGUGGAAAUCCCGACCGGCGGUAGUAAAGCACAUUUGCUUUAGAGCCCGUGACCCGUGUGCAUAAGCACGCGGUGGAUUCAGUUUAAGCUGAAGCCGACAGUGAAAGUCUGGAUGGGAGAAGGAUGA; assay: photoaffinity labeling, Cy5 click fluorescence and PAGE; details: covalent; 10 μM probe; competed out by 10 μM FMN
[2] = tested on: FMN RT RNA (FMN riboswitch in structure cassette) (RNA, riboswitch) GGGCCUUCGGGCCAAUGUAUCCUUCGGGGCAGGGUGGAAAUCCCGACCGGCGGUAGUAAAGCACAUUUGCUUUAGAGCCCGUGACCCGUGUGCAUAAGCACGCGGUGGAUUCAGUUUAAGCUGAAGCCGACAGUGAAAGUCUGGAUGGGAGAAGGAUGAUCGAUCCGGUUCGCCGGAUCCAAAUCGGGCUUCGGUCCGGUUC; assay: SHAPE (NAI); details: 15 mM MgCl2, 100 mM KCl; 50 mM HEPES pH 8.0, 37 °C; 100 μM compound
[3] = tested on: FMN RT RNA (FMN riboswitch in structure cassette) (RNA, riboswitch) GGGCCUUCGGGCCAAUGUAUCCUUCGGGGCAGGGUGGAAAUCCCGACCGGCGGUAGUAAAGCACAUUUGCUUUAGAGCCCGUGACCCGUGUGCAUAAGCACGCGGUGGAUUCAGUUUAAGCUGAAGCCGACAGUGAAAGUCUGGAUGGGAGAAGGAUGAUCGAUCCGGUUCGCCGGAUCCAAAUCGGGCUUCGGUCCGGUUC; assay: reverse transcription termination after photo-cross-linking; details: covalent; folding buffer, 37 °C; 10 μM probe, 2 μM RNA; stops competed by FMN
[4] = tested on: FMN riboswitch aptamer (FMN RNA) (RNA, riboswitch) GGGUGUAUCCUUCGGGGCAGGGUGGAAAUCCCGACCGGCGGUAGUAAAGCACAUUUGCUUUAGAGCCCGUGACCCGUGUGCAUAAGCACGCGGUGGAUUCAGUUUAAGCUGAAGCCGACAGUGAAAGUCUGGAUGGGAGAAGGAUGA; assay: photoaffinity labeling, Cy5 click fluorescence; details: covalent, 10 μM probe
[5] = tested on: FMN riboswitch aptamer (FMN RNA) (RNA, riboswitch) GGGUGUAUCCUUCGGGGCAGGGUGGAAAUCCCGACCGGCGGUAGUAAAGCACAUUUGCUUUAGAGCCCGUGACCCGUGUGCAUAAGCACGCGGUGGAUUCAGUUUAAGCUGAAGCCGACAGUGAAAGUCUGGAUGGGAGAAGGAUGA; assay: competitive photoaffinity labeling, PAGE; details: displaces probe 1 (10 μM), UV cross-linked, fluorescein-azide click
[6] = tested on: FMN riboswitch aptamer (FMN RNA) (RNA, riboswitch) GGGUGUAUCCUUCGGGGCAGGGUGGAAAUCCCGACCGGCGGUAGUAAAGCACAUUUGCUUUAGAGCCCGUGACCCGUGUGCAUAAGCACGCGGUGGAUUCAGUUUAAGCUGAAGCCGACAGUGAAAGUCUGGAUGGGAGAAGGAUGA; assay: competitive photoaffinity labeling, microplate reader fluorescence; details: displaces probe 1

binding [4]: yes
SMILES: C#CC[C@@H](C(=O)NCCc1ccc(N=[N+]=[N-])cc1)N(CCCC(=O)O)CCn1c2nc(=O)[nH]c(=O)c-2nc2cc(C)c(C)cc21

apparent IC50 [5]: 400 ± 10 nM | apparent IC50 [6]: 400 ± 10 nM | binding [2]: yes
SMILES: Cc1cc2nc3c(=O)[nH]c(=O)nc-3n(C[C@H](O)[C@H](O)[C@H](O)COP(=O)(O)O)c2cc1C

Second part, the compound before the results:

SMILES: C#CC[C@@H](C(=O)NCCC1(C)N=N1)N(CCCC(=O)O)CCn1c2nc(=O)[nH]c(=O)c-2nc2cc(C)c(C)cc21
binding [1]: yes | binding [2]: yes | binding [3]: yes

SMILES: C#CC[C@@H](C(=O)NCCc1ccc(C(=O)c2ccccc2)cc1)N(CCCC(=O)O)CCn1c2nc(=O)[nH]c(=O)c-2nc2cc(C)c(C)cc21
binding ([4]; low click efficiency not excluded): weak

SMILES: Cc1cc2nc3c(=O)[nH]c(=O)nc-3n(C[C@H](O)[C@H](O)[C@H](O)CO)c2cc1N(C)C
apparent IC50 [5]: 7000 ± 180 nM
